Values quoted from earlier work, collected in US20210379103A1, “ANISOTROPIC NANOPARTICLE COMPOSITIONS AND METHODS” (Buckyol Limited, priority 2017, published 2021).

Details: C60(OH)8 with OH-groups forming a compact island

hydration energy: −224 kJ per mol
Substance: octa-hydroxylated fullerene [C60(OH)8]
